Results as given in the supplement of paper PMC10307832.

Columns and labels:
Assay in all cases: relative viability (nuclei count vs DMSO), 5 days (fraction); higher = more cells survive
[1] = test system: NCI-H2009
Outline: (§1)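 Lung cancer cell lines were pin-tool dosed in 1536-well plates on the day after seeding, with either a lone drug or a fixed anchor-drug dose plus five library-drug doses (not always all listed) in √10 steps. Nuclei were counted on 4× images after 5 days. Relative viability is the ratio of treated-well to vehicle-well nuclei counts, with each value a median of duplicate plates.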

[2] = test system: NCI-H2170
Outline: as §1

[3] = test system: NCI-H3122
Outline: as §1

[4] = test system: NCI-H322M
Outline: as §1

[5] = test system: NCI-H522
Outline: as §1

[6] = test system: NCI-H596
Outline: as §1

[7] = test system: NCI-H727
Outline: as §1

[8] = test system: PC-3 [JPC-3]
Outline: as §1

[9] = test system: SK-MES-1
Outline: as §1

[10] = test system: SW 1573
Outline: as §1

[11] = test system: SW 900
Outline: as §1

**Q.** For `CCN(CC)CCCCNc1ncc2cc(-c3cc(OC)cc(OC)c3)c(NC(=O)NC(C)(C)C)nc2n1` + Nc1ncn([C@H]2C[C@H](O)[C@@H](CO)O2)c(=O)n1 [Decitabine] (partner 2 µM), which relative viability ([1]; first compound 0.1 µM) is on record?
**A.** 0.35

**Q.** What about the relative viability ([1]; first compound 0.3162 µM) of the same compound?
**A.** 0.387

**Q.** And the relative viability ([1]; first compound 1 µM)?
**A.** 0.365

**Q.** And the relative viability ([2]; first compound 0.01 µM)?
**A.** 0.474

**Q.** What about the relative viability ([2]; first compound 0.03162 µM) of the same compound?
**A.** 0.427

**Q.** And the relative viability ([2]; first compound 0.1 µM)?
**A.** 0.436

**Q.** And the relative viability ([2]; first compound 0.3162 µM)?
**A.** 0.47

**Q.** And the relative viability ([2]; first compound 1 µM)?
**A.** 0.497

**Q.** And the relative viability ([3]; first compound 0.01 µM)?
**A.** 0.493

**Q.** What about the relative viability ([3]; first compound 0.03162 µM) of the same compound?
**A.** 0.472

**Q.** What about the relative viability ([3]; first compound 0.1 µM) of the same compound?
**A.** 0.418

**Q.** And the relative viability ([3]; first compound 0.3162 µM)?
**A.** 0.448

**Q.** And the relative viability ([3]; first compound 1 µM)?
**A.** 0.42

**Q.** What about the relative viability ([4]; first compound 0.01 µM) of the same compound?
**A.** 0.691

**Q.** What about the relative viability ([4]; first compound 0.03162 µM) of the same compound?
**A.** 0.767

**Q.** And the relative viability ([4]; first compound 0.1 µM)?
**A.** 0.687

**Q.** What about the relative viability ([4]; first compound 0.3162 µM) of the same compound?
**A.** 0.696

**Q.** What about the relative viability ([4]; first compound 1 µM) of the same compound?
**A.** 0.663

**Q.** And the relative viability ([5]; first compound 0.01 µM)?
**A.** 0.625

**Q.** And the relative viability ([5]; first compound 0.03162 µM)?
**A.** 0.573

**Q.** And the relative viability ([5]; first compound 0.1 µM)?
**A.** 0.748

**Q.** And the relative viability ([5]; first compound 0.3162 µM)?
**A.** 0.651

**Q.** What about the relative viability ([5]; first compound 1 µM) of the same compound?
**A.** 0.548

**Q.** And the relative viability ([6]; first compound 0.03162 µM)?
**A.** 1.15

**Q.** What about the relative viability ([6]; first compound 0.1 µM) of the same compound?
**A.** 1.03

**Q.** And the relative viability ([6]; first compound 0.3162 µM)?
**A.** 1.01

**Q.** What about the relative viability ([6]; first compound 1 µM) of the same compound?
**A.** 0.893

**Q.** What about the relative viability ([7]; first compound 0.01 µM) of the same compound?
**A.** 0.752

**Q.** And the relative viability ([7]; first compound 0.03162 µM)?
**A.** 0.871

**Q.** And the relative viability ([7]; first compound 0.1 µM)?
**A.** 0.871

**Q.** And the relative viability ([7]; first compound 0.3162 µM)?
**A.** 1.09

**Q.** What about the relative viability ([7]; first compound 1 µM) of the same compound?
**A.** 0.717

**Q.** And the relative viability ([8]; first compound 0.03162 µM)?
**A.** 0.708

**Q.** And the relative viability ([8]; first compound 0.1 µM)?
**A.** 0.928

**Q.** What about the relative viability ([8]; first compound 0.3162 µM) of the same compound?
**A.** 0.851

**Q.** And the relative viability ([8]; first compound 1 µM)?
**A.** 0.804

**Q.** What about the relative viability ([9]; first compound 0.01 µM) of the same compound?
**A.** 0.435

**Q.** What about the relative viability ([9]; first compound 0.03162 µM) of the same compound?
**A.** 0.425

**Q.** What about the relative viability ([9]; first compound 0.1 µM) of the same compound?
**A.** 0.366

**Q.** What about the relative viability ([9]; first compound 0.3162 µM) of the same compound?
**A.** 0.318

**Q.** And the relative viability ([9]; first compound 1 µM)?
**A.** 0.356

**Q.** What about the relative viability ([10]; first compound 0.01 µM) of the same compound?
**A.** 0.441

**Q.** What about the relative viability ([10]; first compound 0.03162 µM) of the same compound?
**A.** 0.528

**Q.** And the relative viability ([10]; first compound 0.1 µM)?
**A.** 0.583

**Q.** And the relative viability ([10]; first compound 0.3162 µM)?
**A.** 0.591

**Q.** What about the relative viability ([10]; first compound 1 µM) of the same compound?
**A.** 0.435

**Q.** What about the relative viability ([11]; first compound 0.01 µM) of the same compound?
**A.** 0.509

**Q.** What about the relative viability ([11]; first compound 0.03162 µM) of the same compound?
**A.** 0.401

**Q.** And the relative viability ([11]; first compound 0.1 µM)?
**A.** 0.459

**Q.** And the relative viability ([11]; first compound 0.3162 µM)?
**A.** 0.416

**Q.** What about the relative viability ([11]; first compound 1 µM) of the same compound?
**A.** 0.437
